Laboratory results published in patent publication US5476952A, “Antitumor cyclopentnaphthoquinone and cyclopentanthraquinone derivatives” (Sloan-Kettering Institute for Cancer Research, priority 1993, dated 1995).
Where two headings read alike, the source gives them in different places.

Experiments:
[1] = test system: certain tumor cell growth; details: literature; without alkylating side chain; cited from earlier work
[2] = test system: human leukemic HL-60; test: in vitro cell growth inhibition, HL-60; format: cell-based; details: for IC50 / antitumor activity against human leukemic HL-60 cell growth (in words): HL-60, in vitro
From the text: (§1) Compounds of the invention show antitumor activity. The antitumor activity of the representative cyclopentanthraquinone derivatives is compared with Mitomycin C, m-AMSA and adriamycin.

[3] = test system: MT4; test: in vitro cell growth inhibition, MT4; format: cell-based, human; details: for IC50 / antitumor activity against MT4 cell growth (in words): MT4, in vitro
From the text: as §1

[4] = test system: L1210; test: in vitro cell growth inhibition, L1210; format: cell-based
From the text: as §1

[5] = test system: L1210 cells; test: effect against L1210 in mice (mice inoculated i.p. with L1210 cells); format: in vivo; design: AST / survival time: unit not given here; details: for % ILS (increase in lifespan): 25% or greater considered significant; for survival time: individual mice
From the text: *Increase in lifespan of 25% or greater is considered to be significant.
Mice dying of toxicity (t) not included in AST evaluation.

[6] = test system: DNA; details: literature; cited from earlier work
[7] = literature; cited from earlier work
[8] = Mus musculus, L1210, in vitro, read-out: IC50 for Cell Growth Inhibition, L1210
[9] = L1210, in vitro, read-out: IC50 for Cell Growth Inhibition, L1210

Cc1cc(O)c2c(c1)C(=O)c1cc(O)cc(O)c1C2=O [emodin]
activity of the parent natural product (in words) [1]: inactive

COc1cc(NS(C)(=O)=O)ccc1Nc1c2ccccc2nc2ccccc12 [m-AMSA, reference compound]
IC50 ([2]; Homo sapiens): 80 nM
IC50 ([3]; Homo sapiens): 34 nM
IC50 [4, 8]: 4 nM

O=C1c2ccccc2C(=O)c2c1cc(OCCN(CCCl)CCCl)c1c2CCC1 [compound IIb, 4-[2-bis(2-chloroethyl)amino]ethoxy-2,3-dihydro-1H-cyclopent[a]anthracene-6,11-dione]
IC50 [2]: 180 nM
antitumor activity against human leukemic HL-60 cell growth (in words) [2]: significant antitumor activity
IC50 [3]: 110 nM
antitumor activity against MT4 cell growth (in words) [3]: significant antitumor activity
AST ([5]; 2.5 mg/kg QD x5, i.p.): 9.0
N/T ([5]; 2.5 mg/kg QD x5, i.p.): 0/3
% ILS (increase in lifespan) ([5]; 2.5 mg/kg QD x5, i.p.): 36%
day 4 AWC ([5]; 2.5 mg/kg QD x5, i.p.): +0.3 g
day 7 AWC ([5]; 2.5 mg/kg QD x5, i.p.): +1.0 g
AST ([5]; 5.0 mg/kg QD x5, i.p.): 9.0
N/T ([5]; 5.0 mg/kg QD x5, i.p.): 0/3
% ILS (increase in lifespan) ([5]; 5.0 mg/kg QD x5, i.p.): 36%
day 4 AWC ([5]; 5.0 mg/kg QD x5, i.p.): -0.3 g
day 7 AWC ([5]; 5.0 mg/kg QD x5, i.p.): +0.7 g
AST ([5]; 20 mg/kg x1, i.p.): 9.0
N/T ([5]; 20 mg/kg x1, i.p.): 0/1
% ILS (increase in lifespan) ([5]; 20 mg/kg x1, i.p.): 36%
day 4 AWC ([5]; 20 mg/kg x1, i.p.): -2.5 g
day 7 AWC ([5]; 20 mg/kg x1, i.p.): +0.5 g
survival time ([5]; 20 mg/kg x1, i.p.): 9
antitumor activity against L1210 cell growth (in words) ([4]; L1210, in vitro): significant antitumor activity
IC50 [4, 9]: 290 nM

COc1cccc2c1C(=O)c1c(O)c3c(c(O)c1C2=O)C[C@@](O)(C(=O)CO)C[C@@H]3O[C@H]1C[C@H](N)[C@H](O)[C@H](C)O1 [Adriamycin, reference compound]
IC50 ([2]; Homo sapiens): 30 nM
IC50 [4, 8]: 20 nM

CCN(CC)CCNc1ccc(C)c2sc3ccccc3c(=O)c12 [lucanthone]
interaction with DNA (in words) [6]: capable of intercalating into DNA and monoalkylating the DNA
antischistosomal and antitumor activity (in words) [7]: potent antischistosomal and antitumor activity

O=C1c2ccccc2C(=O)c2c1ccc1c2CC2NC12 (stereo not drawn) [compound IIa, 2,3-aziridino-2,3-dihydro-1H-cyclopent[a]anthracene-6,11-dione]
antitumor activity against L1210 cell growth (in words) ([4]; L1210, in vitro): less activity
IC50 ([4]; Mus musculus, L1210, read-out: IC50 for Cell Growth Inhibition, L1210): 9090 nM

Cc1cc(O)c2c(c1)C(=O)c1cccc(O)c1C2=O [chrysophanol]
activity of the parent natural product (in words) [1]: inactive

O=C1c2ccccc2C(=O)c2c1cc(OCCN(CCCl)CCCl)c1c2CC2NC12 (stereo not drawn) [compound IIc, 2,3-aziridino-4-[2-bis(2-chloroethyl)amino]-ethoxy-2,3-dihydro-1H-cyclopent [a]anthracene-6,11-dione]
IC50 [2]: 75 nM
antitumor activity against human leukemic HL-60 cell growth (in words) [2]: significant antitumor activity
potency relative to m-AMSA against HL-60 cell growth ([2]; compared with m-AMSA, HL-60): as potent as m-AMSA
IC50 [3]: 69 nM
antitumor activity against MT4 cell growth (in words) [3]: significant antitumor activity
activity relative to m-AMSA against MT4 cell growth ([3]; compared with m-AMSA, MT4): half as active as m-AMSA
AST ([5]; 2.5 mg/kg QD x5, i.p.): 9.0
N/T ([5]; 2.5 mg/kg QD x5, i.p.): 0/3
% ILS (increase in lifespan) ([5]; 2.5 mg/kg QD x5, i.p.): 36%
day 4 AWC ([5]; 2.5 mg/kg QD x5, i.p.): +0.3 g
AST ([5]; 5.0 mg/kg QD x5, i.p.): 9.0
N/T ([5]; 5.0 mg/kg QD x5, i.p.): 0/3
% ILS (increase in lifespan) ([5]; 5.0 mg/kg QD x5, i.p.): 36%
day 4 AWC ([5]; 5.0 mg/kg QD x5, i.p.): -0.3 g
day 7 AWC ([5]; 5.0 mg/kg QD x5, i.p.): +1.7 g
AST ([5]; 20 mg/kg x1, i.p.): 9.0
N/T ([5]; 20 mg/kg x1, i.p.): 0/1
% ILS (increase in lifespan) ([5]; 20 mg/kg x1, i.p.): 36%
day 4 AWC ([5]; 20 mg/kg x1, i.p.): -2.5 g
day 7 AWC ([5]; 20 mg/kg x1, i.p.): +1.5 g
survival time ([5]; 20 mg/kg x1, i.p.): 9
antitumor activity against L1210 cell growth (in words) ([4]; L1210, in vitro): much greater antitumor activity than that of IIa and IIb
IC50 [4, 9]: 64 nM

CO[C@@]12[C@H](COC(N)=O)C3=C(C(=O)C(C)=C(N)C3=O)N1C[C@@H]1N[C@@H]12 [Mit-C, reference compound]
interaction with DNA (in words) [6]: bind covalently at the minor groove of DNA double strand forming interstrand cross-links
AST ([5]; 2.5 mg/kg QD x5, i.p.): 12.7
N/T ([5]; 2.5 mg/kg QD x5, i.p.): 0/3
% ILS (increase in lifespan) ([5]; 2.5 mg/kg QD x5, i.p.): 92%
day 4 AWC ([5]; 2.5 mg/kg QD x5, i.p.): +1.0 g
day 7 AWC ([5]; 2.5 mg/kg QD x5, i.p.): -0.3 g
N/T ([5]; 5.0 mg/kg QD x5, i.p.): 0/3
day 4 AWC ([5]; 5.0 mg/kg QD x5, i.p.): -2.0 g
AST ([5]; 20 mg/kg x1, i.p.): 11.0
N/T ([5]; 20 mg/kg x1, i.p.): 0/1
% ILS (increase in lifespan) ([5]; 20 mg/kg x1, i.p.): 67%
survival time ([5]; 20 mg/kg x1, i.p.): 11
IC50 [4, 8]: 5 nM
